The test addresses T1, CDK9/CycT1 (Homo sapiens, UniProt P50750).
T1 construct: Recombinant full-length His-tagged human CDK9 and CycT1; purchased Life Technologies PV4131; host or cells: insect cells
In words: CDK9/CycT1 high ATP kinase assay (TR-FRET, 2 mM ATP). The format is biochemical. As to conditions: 2 mM ATP (high ATP); median; read-out: CDK9/CyclinT1, 2 mM ATP (high ATP), IC50 (median). The method, boiled down:
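Full-length His-tagged human CDK9/CycT1 (insect cell, ~0.5 μg/mL) preincubated 15 min at 22 °C with compound in Tris pH 8.0, MgCl2, DTT buffer before reaction with biotinylated peptide substrate at high ATP (2 mM).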
(Time-resolved FRET reads energy transfer from a long-lived donor to a nearby acceptor.)

The results in this text go back to patent US20230117034A1, “PYRAZOLOTRIAZINES” (Bayer Aktiengesellschaft, priority 2019, published 2023).

Some results are limits rather than exact numbers.

T1 sequence (P50750 whole entry): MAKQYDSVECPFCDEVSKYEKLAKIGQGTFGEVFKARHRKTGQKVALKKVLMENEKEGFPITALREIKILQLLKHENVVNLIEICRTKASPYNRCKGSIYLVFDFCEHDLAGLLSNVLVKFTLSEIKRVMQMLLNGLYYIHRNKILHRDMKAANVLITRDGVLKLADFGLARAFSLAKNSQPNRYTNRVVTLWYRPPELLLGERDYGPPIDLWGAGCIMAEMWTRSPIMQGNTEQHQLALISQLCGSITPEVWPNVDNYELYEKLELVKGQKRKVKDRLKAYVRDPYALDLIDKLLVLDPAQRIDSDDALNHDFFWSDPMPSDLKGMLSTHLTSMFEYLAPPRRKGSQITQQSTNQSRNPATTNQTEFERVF
T1 sequence (O60563 whole entry partner): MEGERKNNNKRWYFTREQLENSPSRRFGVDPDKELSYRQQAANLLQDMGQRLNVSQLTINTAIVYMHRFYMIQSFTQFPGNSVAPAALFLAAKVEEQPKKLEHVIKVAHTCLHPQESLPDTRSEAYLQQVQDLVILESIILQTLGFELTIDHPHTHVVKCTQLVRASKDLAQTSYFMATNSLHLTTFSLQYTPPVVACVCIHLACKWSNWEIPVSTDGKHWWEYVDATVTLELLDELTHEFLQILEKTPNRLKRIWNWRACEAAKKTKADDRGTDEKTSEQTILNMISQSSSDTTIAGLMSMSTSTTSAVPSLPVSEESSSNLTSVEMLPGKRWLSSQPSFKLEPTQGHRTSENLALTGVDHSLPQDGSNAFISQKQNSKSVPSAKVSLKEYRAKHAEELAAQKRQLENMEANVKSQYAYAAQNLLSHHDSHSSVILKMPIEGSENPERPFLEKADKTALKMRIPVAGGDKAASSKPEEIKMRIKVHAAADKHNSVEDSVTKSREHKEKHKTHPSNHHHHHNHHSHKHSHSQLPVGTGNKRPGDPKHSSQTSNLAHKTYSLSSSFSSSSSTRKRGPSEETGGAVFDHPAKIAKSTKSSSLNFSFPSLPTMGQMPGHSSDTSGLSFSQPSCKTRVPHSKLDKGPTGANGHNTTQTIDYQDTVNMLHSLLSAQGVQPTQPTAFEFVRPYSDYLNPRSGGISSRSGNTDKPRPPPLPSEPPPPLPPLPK

Take `CC1(C)CN(c2nc(NCc3nc4ccccc4[nH]3)n3ncc(Br)c3n2)CCO1` [Example 58, N-[(1H-benzimidazol-2-yl)methyl]-8-bromo-2-(2,2-dimethylmorpholin-4-yl)pyrazolo[1,5-a][1,3,5]triazin-4-amine]: the IC50 was more than 20 µM. `Fc1ccc2[nH]c(CNc3nc(N4CCOCC4)nc4c(CC(F)F)cnn34)nc2c1F.O=C(O)C(F)(F)F` [Example 425, trifluoroacetic acid N-[(4,5-difluoro-1H-benzimidazol-2-yl)methyl]-8-(2,2-difluoroethyl)-2-(morpholin-4-yl)pyrazolo[1,5-a][1,3,5]triazin-4-amine]: the IC50 is more than 20 µM. As for `Cc1cnn2c(NCc3nc4c(F)c(F)ccc4[nH]3)nc(N3CCN(C)CC3)nc12` [Example 394, N-[(4,5-difluoro-1H-benzimidazol-2-yl)methyl]-8-methyl-2-(4-methylpiperazin-1-yl)pyrazolo[1,5-a][1,3,5]triazin-4-amine], the figure is more than 20 µM; as for `Clc1cc2nc(CNc3nc(N4CCOCC4)nc4c(-c5cncs5)cnn34)[nH]c2cc1Cl` [Example 443, N-[(5,6-dichloro-1H-benzimidazol-2-yl)methyl]-2-(morpholin-4-yl)-8-(1,3-thiazol-5-yl)pyrazolo[1,5-a][1,3,5]triazin-4-amine], more than 20 µM. As for `CC(C)COc1nc(NCc2nc3ccccc3[nH]2)n2ncc(Br)c2n1` [Example 409, N-[(1H-benzimidazol-2-yl)methyl]-8-bromo-2-(2-methylpropoxy)pyrazolo[1,5-a][1,3,5]triazin-4-amine], the figure is more than 20 µM; as for `Brc1cnn2c(NCc3nnc(-c4ccccc4)[nH]3)nc(N3CCCCC3)nc12` [Example 49, 8-bromo-N-[(5-phenyl-4H-1,2,4-triazol-3-yl)methyl]-2-(piperidin-1-yl)pyrazolo[1,5-a][1,3,5]triazin-4-amine], 2.61 µM; as for `Clc1cc2nc(CNc3nc(N4CCOCC4)nc4c(-c5ccnnc5)cnn34)[nH]c2cc1Cl.O=C(O)C(F)(F)F` [Example 440, trifluoroacetic acid N-[(5,6-dichloro-1H-benzimidazol-2-yl)methyl]-2-(morpholin-4-yl)-8-(pyridazin-4-yl)pyrazolo[1,5-a][1,3,5]triazin-4-amine], more than 20 µM.

With `N#Cc1cnn2c(NCc3nc4ccccc4[nH]3)nc(N3CCOCC3)nc12` [Example 43, 4-{[(1H-benzimidazol-2-yl)methyl]amino}-2-(morpholin-4-yl)pyrazolo[1,5-a][1,3,5]triazine-8-carbonitrile], the IC50 was more than 20 µM. As for `CCNc1nc(NCc2ncc(-c3ccccc3)[nH]2)n2ncc(C(C)C)c2n1` [Example 34, N^2-ethyl-N^4-[(5-phenyl-1H-imidazol-2-yl)methyl]-8-(propan-2-yl)pyrazolo[1,5-a][1,3,5]triazine-2,4-diamine], the figure is more than 20 µM; as for `CC(C)c1cnn2c(NCc3ncc(-c4ccccc4)[nH]3)nc(N(C)CC(C)(C)O)nc12` [Example 35, 2-methyl-1-{methyl[4-{[(5-phenyl-1H-imidazol-2-yl)methyl]amino}-8-(propan-2-yl)pyrazolo[1,5-a][1,3,5]triazin-2-yl]amino}propan-2-ol], 9.15 µM. Take `Cc1cnn2c(NCc3nc4ccccc4[nH]3)nc(N3CCN(C)CC3)nc12` [Example 396, N-[(1H-benzimidazol-2-yl)methyl]-8-methyl-2-(4-methylpiperazin-1-yl)pyrazolo[1,5-a][1,3,5]triazin-4-amine]: the IC50 was more than 20 µM. For `CCNc1nc(NCc2nnc(-c3ccccc3)[nH]2)n2ncc(C(C)C)c2n1` [Example 38, N^2-ethyl-N^4-[(5-phenyl-4H-1,2,4-triazol-3-yl)methyl]-8-(propan-2-yl)pyrazolo[1,5-a][1,3,5]triazine-2,4-diamine], the IC50 is more than 20 µM.

On to `CN1CCN(c2nc(NCc3nc4c(F)c(F)ccc4[nH]3)n3ncc(CC(F)(F)F)c3n2)CC1` [Example 437, N-[(4,5-difluoro-1H-benzimidazol-2-yl)methyl]-2-(4-methylpiperazin-1-yl)-8-(2,2,2-trifluoroethyl) pyrazolo[1,5-a][1,3,5]triazin-4-amine], for which the IC50 was more than 20 µM. The same measure for `Brc1cnn2c(NCc3nc4ccccc4[nH]3)nc(OCCN3CCCC3)nc12` [Example 404, N-[(1H-benzimidazol-2-yl)methyl]-8-bromo-2-[2-(pyrrolidin-1-yl)ethoxy]pyrazolo[1,5-a][1,3,5]triazin-4-amine]: more than 20 µM; for `CN(CC(C)(C)O)c1nc(NCc2nc3c(F)c(F)ccc3[nH]2)n2ncc(C(F)(F)F)c2n1` [Example 402, 1-{[4-{[(4,5-difluoro-1H-benzimidazol-2-yl)methyl]amino}-8-(trifluoromethyl)pyrazolo[1,5-a][1,3,5]triazin-2-yl](methyl)amino}-2-methylpropan-2-ol]: 5.4 µM. Turning to `FC(F)Cc1cnn2c(NCc3nc4ccccc4[nH]3)nc(N3CCOCC3)nc12.O=C(O)C(F)(F)F` [Example 444, trifluoroacetic acid N-[(1H-benzimidazol-2-yl)methyl]-8-(2,2-difluoroethyl)-2-(morpholin-4-yl)pyrazolo[1,5-a][1,3,5]triazin-4-amine], the IC50 is more than 20 µM. The same measure for `C[C@H]1COCCN1c1nc(NCc2nc3ccccc3[nH]2)n2ncc(Br)c2n1` [Example 57, N-[(1H-benzimidazol-2-yl)methyl]-8-bromo-2-[(3S)-3-methylmorpholin-4-yl]pyrazolo[1,5-a][1,3,5]triazin-4-amine]: 6.67 µM; for `COC(C)(C)COc1nc(NCc2nc3ccccc3[nH]2)n2ncc(Br)c2n1` [Example 403, N-[(1H-benzimidazol-2-yl)methyl]-8-bromo-2-(2-methoxy-2-methylpropoxy)pyrazolo[1,5-a][1,3,5]triazin-4-amine]: more than 20 µM; for `CN1CCN(c2nc(NCc3nc4cc(Cl)c(Cl)cc4[nH]3)n3ncc(-c4cnn(C)c4)c3n2)CC1` [Example 420, N-[(5,6-dichloro-1H-benzimidazol-2-yl)methyl]-2-(4-methylpiperazin-1-yl)-8-(1-methyl-1H-pyrazol-4-yl)pyrazolo[1,5-a][1,3,5]triazin-4-amine]: more than 20 µM. As for `FC(F)n1cc(-c2cnn3c(NCc4nc5cc(Cl)c(Cl)cc5[nH]4)nc(N4CCOCC4)nc23)cn1` [Example 423, N-[(5,6-dichloro-1H-benzimidazol-2-yl)methyl]-8-[1-(difluoromethyl)-1H-pyrazol-4-yl]-2-(morpholin-4-yl)pyrazolo[1,5-a][1,3,5]triazin-4-amine], the figure is more than 20 µM; as for `Cc1cnn2c(NCc3nc4ccccc4[nH]3)nc(N(C)CC(C)(C)O)nc12` [Example 397, 1-[(4-{[(1H-benzimidazol-2-yl)methyl]amino}-8-methylpyrazolo[1,5-a][1,3,5]triazin-2-yl)(methyl)amino]-2-methylpropan-2-ol], more than 20 µM; as for `CCc1cnn2c(NCc3nc4c(OC)cccc4[nH]3)nc(N3CCOCC3)nc12` [Example 433, 8-ethyl-N-[(4-methoxy-1H-benzimidazol-2-yl)methyl]-2-(morpholin-4-yl)pyrazolo[1,5-a][1,3,5]triazin-4-amine], more than 20 µM. For the compound `Fc1ccc2[nH]c(CNc3nc(N4CCOCC4)nc4c(-c5nccs5)cnn34)nc2c1F` [Example 413, N-[(4,5-difluoro-1H-benzimidazol-2-yl)methyl]-2-(morpholin-4-yl)-8-(1,3-thiazol-2-yl)pyrazolo [1,5-a][1,3,5]triazin-4-amine], the IC50 is more than 20 µM. As for `O=C(O)C(F)(F)F.c1ccc2[nH]c(CNc3nc(N4CCOCC4)nc4c(-c5ccnnc5)cnn34)nc2c1` [Example 438, trifluoroacetic acid N-[(1H-benzimidazol-2-yl)methyl]-2-(morpholin-4-yl)-8-(pyridazin-4-yl)pyrazolo[1,5-a][1,3,5]triazin-4-amine], the figure is more than 20 µM; as for `Fc1cccc(-c2nnc(CNc3nc(N4CCOCC4)nc4c(Br)cnn34)[nH]2)c1` [Example 44, 8-bromo-N-{[5-(3-fluorophenyl)-4H-1,2,4-triazol-3-yl]methyl}-2-(morpholin-4-yl)pyrazolo[1,5-a][1,3,5]triazin-4-amine], 0.885 µM. With `Fc1ccc2[nH]c(CNc3nc(N4CCOCC4)nc4c(C(F)(F)F)cnn34)nc2c1F` [Example 426, N-[(4,5-difluoro-1H-benzimidazol-2-yl)methyl]-2-(morpholin-4-yl)-8-(trifluoromethyl)pyrazolo [1,5-a][1,3,5]triazin-4-amine], the IC50 was determined as 12.7 µM. As for `Cc1cccc(-c2nnc(CNc3nc(N4CCOCC4)nc4c(Br)cnn34)[nH]2)c1` [Example 40, 8-bromo-N-{[5-(3-methylphenyl)-4H-1,2,4-triazol-3-yl]methyl}-2-(morpholin-4-yl)pyrazolo[1,5-a][1,3,5]triazin-4-amine], the figure is 2.82 µM; as for `Brc1cnn2c(NCc3nnc(-c4cccnc4)[nH]3)nc(N3CCOCC3)nc12` [Example 53, 8-bromo-2-(morpholin-4-yl)-N-{[5-(pyridin-3-yl)-4H-1,2,4-triazol-3-yl]methyl}pyrazolo[1,5-a][1,3,5]triazin-4-amine], 1.29 µM.

As for `CC(C)c1cnn2c(NCc3nnc(-c4ccccc4)[nH]3)nc(N(C)CC(C)(C)O)nc12` [Example 39, 2-methyl-1-{methyl[4-{[(5-phenyl-4H-1,2,4-triazol-3-yl)methyl]amino}-8-(propan-2-yl)pyrazolo[1,5-a][1,3,5]triazin-2-yl]amino}propan-2-ol], the IC50 was 4.91 µM. The same measure for `COc1cccc2[nH]c(CNc3nc(N4CCOCC4)nc4c(-c5nccs5)cnn34)nc12` [Example 414, N-[(4-methoxy-1H-benzimidazol-2-yl)methyl]-2-(morpholin-4-yl)-8-(1,3-thiazol-2-yl)pyrazolo [1,5-a][1,3,5]triazin-4-amine]: more than 20 µM.
